From US11572399B2, “Long-acting GIP peptide analogues” (University of Copenhagen, priority 2017, dated 2023)
Peptide text beside a SMILES is read from it. * marks the point of attachment. Palmitoyl = CCCCCCCCCCCCCCCC(=O)*

Tests used:
[1] = molecular target: T1, human GIP receptor (Homo sapiens, UniProt P48546); test: cAMP accumulation assay, antagonism of a GIP-mediated cAMP response (50-80% of max); format: cell-based; conditions: for cAMP - antagonisme fold (paired): fold vs GIP(3-30)NH2
T1 construct: host or cells: COS-7, transient transfection (calcium phosphate), cDNA in pCMV-Script
T1 sequence (P48546 22-466): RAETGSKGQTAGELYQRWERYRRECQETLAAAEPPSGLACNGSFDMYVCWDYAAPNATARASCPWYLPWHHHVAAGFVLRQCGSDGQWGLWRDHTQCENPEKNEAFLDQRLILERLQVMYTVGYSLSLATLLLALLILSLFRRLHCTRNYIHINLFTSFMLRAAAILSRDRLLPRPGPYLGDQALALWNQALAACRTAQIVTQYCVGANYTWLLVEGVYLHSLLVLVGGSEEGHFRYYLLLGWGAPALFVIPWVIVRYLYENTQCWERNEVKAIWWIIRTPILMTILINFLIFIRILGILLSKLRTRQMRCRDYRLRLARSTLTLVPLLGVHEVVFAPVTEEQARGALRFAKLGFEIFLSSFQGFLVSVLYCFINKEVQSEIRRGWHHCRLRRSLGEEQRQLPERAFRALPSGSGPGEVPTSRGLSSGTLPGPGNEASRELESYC
Description: The day after, the cells were washed twice with Hepes buffered saline (HBS) buffer and incubated with HBS and 1 mM 3-isobutyl-1-methylxanthine (IBMX) for 30 min at 37° C. […] The HitHunter™ cAMP XS assay (DiscoveRx) was carried out according to the manufacturer's instructions.

[2] = molecular target: T1, human GIP receptor; test: cAMP accumulation assay, agonism (ligand alone); format: cell-based; conditions: COS-7 cells, Table 1; for Emax: COS-7, intrinsic cAMP activity
[3] = molecular target: T1, human GIP receptor; test: 125I-human GIP competition binding assay, in the presence and absence of 2% HSA; conditions: for Binding fold (paired): fold decrease in affinity compared to GIP(3-30)NH2; for Fold change HSA (2%)/Casein (0.1%): IC50 (plus HSA)/IC50 (minus HSA); for Fold change in affinity, IC50 (plus HSA)/IC50 (minus HSA): presence vs absence of 2% HSA, proxy for albumin binding;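 on all read-outs here: nonspecific binding taken as radioligand bound to untransfected cells, IC50 obtained from nonlinear regression fits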
[4] = Table 3b, initial data, read-out: Binding IC50
[5] = heterologous competition binding, transiently transfected COS-7 cells expressing the human GIP receptor, read-out: Binding
[6] = given as log IC50 (negative sign), transiently transfected COS-7 cells, Table 1, read-out: cAMP antagonism log (converted)
[7] = transiently transfected COS-7 cells, Table 1 and text, read-out: cAMP antagonism nM (IC50, antagonistic potency)
[8] = binding in presence of 2% HSA, read-out: logIC50 2% HSA (converted)
[9] = binding in 0.1% casein (absence of HSA), log value, read-out: logIC50 0.1% casein (converted)

| SMILES | cAMP - antagonisme fold (paired) ([1]; Table 3b) [fold] | Emax [2] [%] | EC50 ([2]; read-out: cAMP agonism nM (EC50)) [nM] | IC50 [3, 4] [nM] | Binding fold (paired) ([3]; Table 3b) [fold] | IC50 [3, 5] [nM] | IC50 [1, 6] [nM] | IC50 [1, 7] [nM] | IC50 ([3]; 0.1% casein, no HSA, Table 3b, read-out: Binding logIC50 0.1% casein (converted)) [nM] | IC50 ([3]; 2% HSA, Table 3b, read-out: Binding logIC50 2% HSA (converted)) [nM] | Fold change HSA (2%)/Casein (0.1%) [3] | IC50 [3, 8] [nM] | Fold change in affinity, IC50 (plus HSA)/IC50 (minus HSA) [3] [fold] | IC50 ([1]; Table 3b, initial data, read-out: cAMP - antagonisme IC50) [nM] | IC50 [3, 9] [nM] | Ability to antagonize the GIP-mediated cAMP response (in words) [1] | Affinity compared to GIP(3-30)NH2 (in words) [3] |
| --- | --- | --- | --- | --- | --- | --- | --- | --- | --- | --- | --- | --- | --- | --- | --- | --- | --- |
| CCCCCCCCCCCCCCCC(=O)NCCCC[C@H](NC(=O)[C@H](CCC(=O)O)NC(=O)[C@H](CCSC)NC(=O)[C@H](C)NC(=O)[C@@H](NC(=O)[C@H](CO)NC(=O)[C@H](Cc1ccc(O)cc1)NC(=O)[C@H](CC(=O)O)NC(=O)[C@H](CO)NC(=O)[C@@H](NC(=O)[C@H](Cc1ccccc1)NC(=O)[C@H](Cc1c[nH]c2ccccc12)NC(=O)CNC(=O)[C@@H](N)CCC(=O)O)[C@@H](C)CC)[C@@H](C)CC)C(=O)N[C@H](C(=O)N[C@@H](C)C(=O)N[C@@H](CCC(N)=O)C(=O)N[C@@H](CCC(N)=O)C(=O)N[C@@H](CC(=O)O)C(=O)N[C@@H](Cc1ccccc1)C(=O)N[C@H](C(=O)N[C@@H](CC(N)=O)C(=O)N[C@@H](Cc1c[nH]c2ccccc12)C(=O)N[C@@H](CC(C)C)C(=O)N[C@@H](CC(C)C)C(=O)N[C@@H](C)C(=O)N[C@@H](CCC(N)=O)C(=O)N[C@@H](CCCCN)C(N)=O)C(C)C)[C@@H](C)CC [AT107, [hGIP(3-30)NH2[T5W; D15E; H18A]-C16/16]] (H-EGWFISDYSIAMEK(Palmitoyl)IAQQDFVNWLLAQK-NH2; N-terminus assumed) | 3.1 | 23 | 1300 | 5220 | 186 | 5220 |  |  |  |  |  |  |  |  |  |  |  |
| CCCCCCCCCCCCCC(=O)NCCCC[C@H](NC(=O)[C@H](CC(=O)O)NC(=O)[C@H](CCSC)NC(=O)[C@H](C)NC(=O)[C@@H](NC(=O)[C@H](CO)NC(=O)[C@H](Cc1ccc(O)cc1)NC(=O)[C@H](CC(=O)O)NC(=O)[C@H](CO)NC(=O)[C@@H](NC(=O)[C@H](Cc1ccccc1)NC(=O)[C@@H](NC(=O)CNC(=O)[C@@H](N)CCC(=O)O)[C@@H](C)O)[C@@H](C)CC)[C@@H](C)CC)C(=O)N[C@H](C(=O)N[C@@H](Cc1c[nH]cn1)C(=O)N[C@@H](CCC(N)=O)C(=O)N[C@@H](CCC(N)=O)C(=O)N[C@@H](CC(=O)O)C(=O)N[C@@H](Cc1ccccc1)C(=O)N[C@H](C(=O)N[C@@H](CC(N)=O)C(=O)N[C@@H](Cc1c[nH]c2ccccc12)C(=O)N[C@@H](CC(C)C)C(=O)N[C@@H](CC(C)C)C(=O)N[C@@H](C)C(=O)N[C@@H](CCC(N)=O)C(=O)N[C@@H](CCCCN)C(N)=O)C(C)C)[C@@H](C)CC [AT111, [hGIP(3-30)NH2—C14/16]] | 3.3 | 0 |  | 261 | 31 | 261 | 25.1 | 22 | 407 | 2090 | 5.1 | 2090 | 5.1 |  |  |  |  |
| CCCCCCCCCCCCCCCCCC(=O)NCCCC[C@H](NC(=O)[C@H](CC(=O)O)NC(=O)[C@H](CCSC)NC(=O)[C@H](C)NC(=O)[C@@H](NC(=O)[C@H](CO)NC(=O)[C@H](Cc1ccc(O)cc1)NC(=O)[C@H](CC(=O)O)NC(=O)[C@H](CO)NC(=O)[C@@H](NC(=O)[C@H](Cc1ccccc1)NC(=O)[C@@H](NC(=O)CNC(=O)[C@@H](N)CCC(=O)O)[C@@H](C)O)[C@@H](C)CC)[C@@H](C)CC)C(=O)N[C@H](C(=O)N[C@@H](Cc1c[nH]cn1)C(=O)N[C@@H](CCC(N)=O)C(=O)N[C@@H](CCC(N)=O)C(=O)N[C@@H](CC(=O)O)C(=O)N[C@@H](Cc1ccccc1)C(=O)N[C@H](C(=O)N[C@@H](CC(N)=O)C(=O)N[C@@H](Cc1c[nH]c2ccccc12)C(=O)N[C@@H](CC(C)C)C(=O)N[C@@H](CC(C)C)C(=O)N[C@@H](C)C(=O)N[C@@H](CCC(N)=O)C(=O)N[C@@H](CCCCN)C(N)=O)C(C)C)[C@@H](C)CC [AT114, [hGIP(3-30)NH2—C18/16]] | 2.3 | 39 |  | 102 | 6.7 |  | 63.1 |  |  |  | 11.2 |  | 7.7 | 29.2 | 501 |  |  |
| CCCCCCCCCCCC(=O)N[C@H](C(=O)N[C@@H](Cc1ccccc1)C(=O)N[C@H](C(=O)N[C@@H](CO)C(=O)N[C@@H](CC(=O)O)C(=O)N[C@@H](Cc1ccc(O)cc1)C(=O)N[C@@H](CO)C(=O)N[C@H](C(=O)N[C@@H](C)C(=O)N[C@@H](CCSC)C(=O)N[C@@H](CC(=O)O)C(=O)N[C@@H](CCCCN)C(=O)N[C@H](C(=O)N[C@@H](Cc1c[nH]cn1)C(=O)N[C@@H](CCC(N)=O)C(=O)N[C@@H](CCC(N)=O)C(=O)N[C@@H](CC(=O)O)C(=O)N[C@@H](Cc1ccccc1)C(=O)N[C@H](C(=O)N[C@@H](CC(N)=O)C(=O)N[C@@H](Cc1c[nH]c2ccccc12)C(=O)N[C@@H](CC(C)C)C(=O)N[C@@H](CC(C)C)C(=O)N[C@@H](C)C(=O)N[C@@H](CCC(N)=O)C(=O)N[C@@H](CCCCN)C(N)=O)C(C)C)[C@@H](C)CC)[C@@H](C)CC)[C@@H](C)CC)[C@@H](C)O [AT118, [hGIP(5-30)NH2—C12/5]] |  | 0 |  |  |  | 102 |  | 29 |  |  | 7.7 | 881 |  |  | 126 | high potent antagonists | affinities in the same range as GIP(3-30)NH2 |
| CCCCCCCCCCCC(=O)NCCCC[C@H](NC(=O)[C@H](CC(=O)O)NC(=O)[C@H](CCSC)NC(=O)[C@H](C)NC(=O)[C@@H](NC(=O)[C@H](CO)NC(=O)[C@H](Cc1ccc(O)cc1)NC(=O)[C@H](CC(=O)O)NC(=O)[C@H](CO)NC(=O)[C@@H](NC(=O)[C@H](Cc1ccccc1)NC(=O)[C@@H](N)[C@@H](C)O)[C@@H](C)CC)[C@@H](C)CC)C(=O)N[C@H](C(=O)N[C@@H](Cc1c[nH]cn1)C(=O)N[C@@H](CCC(N)=O)C(=O)N[C@@H](CCC(N)=O)C(=O)N[C@@H](CC(=O)O)C(=O)N[C@@H](Cc1ccccc1)C(=O)N[C@H](C(=O)N[C@@H](CC(N)=O)C(=O)N[C@@H](Cc1c[nH]c2ccccc12)C(=O)N[C@@H](CC(C)C)C(=O)N[C@@H](CC(C)C)C(=O)N[C@@H](C)C(=O)N[C@@H](CCC(N)=O)C(=O)N[C@@H](CCCCN)C(N)=O)C(C)C)[C@@H](C)CC [AT119, [hGIP(5-30)NH2—C12/16]] |  | 0 |  |  |  |  |  | 26 |  |  | 7.2 |  |  |  | 398 |  |  |
| CCCCCCCCCCCCCC(=O)N[C@H](C(=O)N[C@@H](Cc1ccccc1)C(=O)N[C@H](C(=O)N[C@@H](CO)C(=O)N[C@@H](CC(=O)O)C(=O)N[C@@H](Cc1ccc(O)cc1)C(=O)N[C@@H](CO)C(=O)N[C@H](C(=O)N[C@@H](C)C(=O)N[C@@H](CCSC)C(=O)N[C@@H](CC(=O)O)C(=O)N[C@@H](CCCCN)C(=O)N[C@H](C(=O)N[C@@H](Cc1c[nH]cn1)C(=O)N[C@@H](CCC(N)=O)C(=O)N[C@@H](CCC(N)=O)C(=O)N[C@@H](CC(=O)O)C(=O)N[C@@H](Cc1ccccc1)C(=O)N[C@H](C(=O)N[C@@H](CC(N)=O)C(=O)N[C@@H](Cc1c[nH]c2ccccc12)C(=O)N[C@@H](CC(C)C)C(=O)N[C@@H](CC(C)C)C(=O)N[C@@H](C)C(=O)N[C@@H](CCC(N)=O)C(=O)N[C@@H](CCCCN)C(N)=O)C(C)C)[C@@H](C)CC)[C@@H](C)CC)[C@@H](C)CC)[C@@H](C)O [AT121, [hGIP(5-30)NH2—C14/5]] |  | 0 |  |  |  |  |  | 54 |  |  | 5.7 |  |  |  | 158 | high potent antagonists | affinities in the same range as GIP(3-30)NH2 |
